Several values for one entry are separate records, joined by “and”; a condition that tells them apart may be missing. Equal entries are not always repeated. Toxic doses and inconclusive results are not listed. Cut-off read from the data, not from the text of the source: active = T/C of 150% or more; inactive = T/C below 125%.
Tested on: L1210 leukemia ip in BDF1 mice, survival T/C
Test: NCI In Vivo Anticancer Drug Screen. Data for tumor model L1210 Leukemia (intraperitoneal) in B6D2F1 (BDF1) mice
Details: endpoint: mean survival time, higher = longer survival
In short: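 In this screen, tumor-bearing mice given compound are compared to those given vehicle, and their survival values are reported as a treated-to-control quotient.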

[1] = dose: 100.0 mg/kg/injection, schedule: Q01DX009 (ip), vehicle: Klucel (hydroxypropylcellulose) (HPC)
[2] = dose: 100.0 mg/kg/injection, schedule: Q04DX003 (ip), vehicle: Klucel (hydroxypropylcellulose) (HPC)
[3] = dose: 200.0 mg/kg/injection, schedule: Q01DX009 (ip), vehicle: Klucel (hydroxypropylcellulose) (HPC)
[4] = dose: 200.0 mg/kg/injection, schedule: Q04DX003 (ip), vehicle: Klucel (hydroxypropylcellulose) (HPC)
[5] = dose: 100.0 mg/kg/injection, schedule: Q04DX003 (ip), vehicle: saline with Tween-80
[6] = dose: 200.0 mg/kg/injection, schedule: Q04DX003 (ip), vehicle: saline with Tween-80
[7] = dose: 400.0 mg/kg/injection, schedule: Q04DX003 (ip), vehicle: saline with Tween-80
[8] = dose: 100.0 mg/kg/injection, schedule: Q01DX001 (ip), vehicle: saline with Tween-80
[9] = dose: 200.0 mg/kg/injection, schedule: Q01DX001 (ip), vehicle: saline with Tween-80
[10] = dose: 400.0 mg/kg/injection, schedule: Q01DX001 (ip), vehicle: saline with Tween-80
[11] = dose: 100.0 mg/kg/injection, schedule: Q01DX001 (ip), vehicle: saline
[12] = dose: 200.0 mg/kg/injection, schedule: Q01DX001 (ip), vehicle: saline

Measured: T/C

Cc1ccc(C)c(NS(=O)(=O)c2ccc(Cl)cc2)c1
inactive: [1] 102 % of control | [2] 107 % of control | [3] 98 % of control | [4] 113 % of control | dose: 400.0 mg/kg/injection, schedule: Q01DX009 (ip), vehicle: Klucel (hydroxypropylcellulose) (HPC) 98 % of control | dose: 400.0 mg/kg/injection, schedule: Q04DX003 (ip), vehicle: Klucel (hydroxypropylcellulose) (HPC) 113 % of control

CSc1nc(O)c(-c2ccccc2)c(=O)[nH]1
inactive: dose: 100.0 mg/kg/injection, schedule: Q01DX Z (ip), vehicle: methylcellulose (MC) 103 % of control | dose: 200.0 mg/kg/injection, schedule: Q01DX Z (ip), vehicle: methylcellulose (MC) 101 % of control

CCCCCCCCC1CCCC2C(C)CCC(C)C12 (stereo unspecified)
inactive: dose: 75.0 mg/kg/injection, schedule: Q01DX001 (ip), vehicle: saline 96 % of control | dose: 150.0 mg/kg/injection, schedule: Q01DX001 (ip), vehicle: saline 95 % of control | dose: 300.0 mg/kg/injection, schedule: Q01DX001 (ip), vehicle: saline 104 % of control

N#Cc1cc(C#N)c(NN)nc1N
inactive: [5] 86 % of control | [6] 94 % of control | [7] 92 % of control

Cn1c(=S)[nH]c2cn[nH]c2c1=O
inactive: [8] 93 % of control | [9] 97 % of control | [10] 89 % of control

O=CNC(Cc1ccc(O)cc1)C(=O)O (stereo unspecified)
inactive: dose: 100.0 mg/kg/injection, schedule: Q04DX003 (ip), vehicle: saline 95 % of control | dose: 200.0 mg/kg/injection, schedule: Q04DX003 (ip), vehicle: saline 91 % of control | dose: 400.0 mg/kg/injection, schedule: Q04DX003 (ip), vehicle: saline 93 % of control

CCC(=O)OC1(c2ccccc2)CCN(CCCc2ccccc2Cl)CC1
inactive: dose: 3.13 mg/kg/injection, schedule: Q04DX002 (ip), vehicle: saline with Tween-80 103 % of control | dose: 6.25 mg/kg/injection, schedule: Q04DX002 (ip), vehicle: saline with Tween-80 106 % of control | dose: 12.5 mg/kg/injection, schedule: Q04DX002 (ip), vehicle: saline with Tween-80 103 % of control | dose: 25.0 mg/kg/injection, schedule: Q04DX002 (ip), vehicle: saline with Tween-80 106 % of control

O=C1C(c2ccccc2)=C(c2ccccc2)C(c2ccccc2)C1c1ccccc1 (stereo unspecified)
inactive: dose: 100.0 mg/kg/injection, schedule: Q04DX002 (ip), vehicle: gum acacia 100 % of control | dose: 200.0 mg/kg/injection, schedule: Q04DX002 (ip), vehicle: gum acacia 87 % of control | dose: 400.0 mg/kg/injection, schedule: Q04DX002 (ip), vehicle: gum acacia 90 % of control

CCCCOC(=O)/C=C/C(=O)[O][Sn]([CH2]CCC)([CH2]CCC)[O]C(=O)/C=C/C(=O)OCCCC
inactive: dose: 12.5 mg/kg/injection, schedule: Q01DX009 (sc), vehicle: olive oil, sesame oil, peanut oil 98 % of control | dose: 25.0 mg/kg/injection, schedule: Q01DX009 (sc), vehicle: olive oil, sesame oil, peanut oil 108 % of control | dose: 25.0 mg/kg/injection, schedule: Q04DX002 (sc), vehicle: olive oil, sesame oil, peanut oil 97 % of control | dose: 50.0 mg/kg/injection, schedule: Q01DX009 (sc), vehicle: olive oil, sesame oil, peanut oil 95 % of control | dose: 50.0 mg/kg/injection, schedule: Q04DX002 (sc), vehicle: olive oil, sesame oil, peanut oil 94 % of control | dose: 100.0 mg/kg/injection, schedule: Q04DX002 (sc), vehicle: olive oil, sesame oil, peanut oil 96 % of control and 106 % of control | dose: 200.0 mg/kg/injection, schedule: Q04DX002 (sc), vehicle: olive oil, sesame oil, peanut oil 89 % of control

c1ccc2c(c1)nnn1c3ccccc3nc21
inactive: dose: 25.0 mg/kg/injection, schedule: Q04DX003 (ip), vehicle: Klucel (hydroxypropylcellulose) (HPC) 102 % of control | dose: 50.0 mg/kg/injection, schedule: Q04DX003 (ip), vehicle: Klucel (hydroxypropylcellulose) (HPC) 94 % of control | dose: 100.0 mg/kg/injection, schedule: Q01DX001 (ip), vehicle: other 97 % of control | dose: 100.0 mg/kg/injection, schedule: Q01DX009 (ip), vehicle: other 101 % of control | [2] 104 % of control | dose: 200.0 mg/kg/injection, schedule: Q01DX001 (ip), vehicle: other 108 % of control and 92 % of control | dose: 200.0 mg/kg/injection, schedule: Q01DX009 (ip), vehicle: other 86 % of control | dose: 400.0 mg/kg/injection, schedule: Q01DX001 (ip), vehicle: other 95 % of control and 92 % of control | dose: 400.0 mg/kg/injection, schedule: Q01DX009 (ip), vehicle: other 90 % of control

NC(=O)c1ccccc1C(=O)c1ccccc1
inactive: [11] 102 % of control | [12] 104 % of control

O=C1NC2c3ccccc3CC12 (stereo unspecified)
inactive: [8] 95 % of control | [9] 92 % of control | [10] 89 % of control

N=C(N=C(N)N)N(Cc1ccccc1)Cc1ccccc1
inactive: dose: 6.25 mg/kg/injection, schedule: Q01DX009 (ip), vehicle: water 103 % of control | dose: 6.25 mg/kg/injection, schedule: Q04DX003 (ip), vehicle: water 97 % of control | dose: 12.5 mg/kg/injection, schedule: Q01DX001 (ip), vehicle: water 107 % of control | dose: 12.5 mg/kg/injection, schedule: Q01DX009 (ip), vehicle: water 101 % of control | dose: 12.5 mg/kg/injection, schedule: Q04DX003 (ip), vehicle: water 103 % of control | dose: 25.0 mg/kg/injection, schedule: Q01DX001 (ip), vehicle: water 100 % of control | dose: 25.0 mg/kg/injection, schedule: Q01DX009 (ip), vehicle: water 101 % of control | dose: 25.0 mg/kg/injection, schedule: Q04DX003 (ip), vehicle: water 96 % of control

CC1(C)N=C(N)N=C(N)N1c1ccc(CCC(=O)CCl)cc1
inactive: dose: 25.0 mg/kg/injection, schedule: Q01DX001 (ip), vehicle: saline with Tween-80 92 % of control | dose: 50.0 mg/kg/injection, schedule: Q01DX001 (ip), vehicle: saline with Tween-80 95 % of control | [8] 95 % of control

COc1nc2c(N)ncnc2n1C1OC(CO)C(O)C1O (stereo unspecified)
inactive: [11] 97 % of control | [12] 103 % of control | dose: 400.0 mg/kg/injection, schedule: Q01DX001 (ip), vehicle: saline 103 % of control

CCCCCCCCCCCCCCCCSc1ccc(S(=O)(=O)N(C)C)cc1C(=O)O
inactive: [5] 98 % of control | [6] 91 % of control | [7] 89 % of control

CCCCN=C(N)N=C(N)N
inactive: dose: 5.0 mg/kg/injection, schedule: Q01DX001 (ip), vehicle: saline 107 % of control | dose: 10.0 mg/kg/injection, schedule: Q01DX001 (ip), vehicle: saline 92 % of control | dose: 20.0 mg/kg/injection, schedule: Q01DX001 (ip), vehicle: saline 97 % of control | dose: 40.0 mg/kg/injection, schedule: Q01DX001 (ip), vehicle: saline 102 % of control | dose: 80.0 mg/kg/injection, schedule: Q01DX001 (ip), vehicle: saline 105 % of control | [11] 109 % of control

CCCC1=C(CCC)C1C(=O)O
inactive: dose: 50.0 mg/kg/injection, schedule: Q01DX009 (ip), vehicle: Klucel (hydroxypropylcellulose) (HPC) 91 % of control | [1] 100 % of control | [2] 103 % of control | [3] 88 % of control | [4] 96 % of control
